Data on five compounds can be found in patent US20250019375A1, “BENZOTHIAZOLE DYES” (Detect, Inc., priority 2023, published 2025).

Series [1] concerns double stranded DNA (dsDNA). Kind of series: Absorption/emission spectra of dyes with dsDNA. Type of series: physicochemical. The conditions noted are these: for Stokes shift: 2 μM dye + 2 μM hairpin DNA; for Stokes shift / λem: pH 8.8 isoamplification buffer; for λabs: absorption recorded at 25±2° C.; for λem: fluorescence at 62±2° C. As to the method: FIG. 6A-F show absorption/emission spectra of dyes with double stranded DNA (dsDNA).
Fluorescence readings (FIGS. 6A-F) were performed using 10 mm path length, 700 μL quartz cuvettes on Horiba Fluorolog-Q fluorometer instrument. All measurements were taken at elevated temperature (62±2° C.) in pH 8.8 isoamplification buffer containing 20 mM Tris-HCl. For each measurement, 2 μM of dye was combined with 2 μM of hairpin DNA. Absorption spectra were recorded at ambient temperature (25±2° C.) on a DeNovix DS-11 spectrophotometer instrument. Normalized spectra are shown for clarity. The benzothiazole dye compounds have large Stokes shift >40 nm, which allows a substantial portion of the output fluorescence to pass through the filter covering the photodiode detection component of the device.

In series [2] the test system is Neisseria gonorrhoeae (AQ10). As to the kind of experiment: qLAMP assay, Neisseria gonorrhoeae (AQ10), time to positive (Tp). Type of series: biochemical. As to the method: Compounds were added to the LAMP reaction mixture containing target-specific primers, dNTPs, DNA polymerase, reverse transcriptase, and the target RNA sequence. This reaction mixture was incubated at 62° C. (or the specified temperature (FIG. 4)) for at least 50 minutes and the increase in fluorescence was assessed to determine the time to positivity (Tp). Data shown in FIGS. 1A-B support that these compounds are compatible with LAMP assays at concentrations up to 16 μM.
For the Neisseria gonorrhoeae (AQ10), there is detrimental impact on Tp observed with Compound 5 at ≥8 μM where a delay in Tp is observed.
Data shown is under clean and eluted vaginal swabs (contrived conditions). Good performance is observed at ≥61° C. There is detrimental impact on performance at <60° C. (delay in Tp).

The nature of series [3]: Accelerated stability of lyophilized dye, assayed by HPLC. The series is classed as physicochemical. The procedure: It was also determined that Compound 3 is stable under accelerated stability conditions from lyophilized chemistry (FIG. 5). As assayed by HPLC, Compound 3 is stable under these conditions at the 3-month time point (98.7±0.33% remaining), corresponding to 6 months stability at room temperature (15-30° C.).

Setting [4] is: clean and eluted vaginal swabs (contrived conditions).

Take `COc1ccc2c(c1)S/C(=C\c1cc[n+](C)c3ccccc13)N2C` [Compound 11]: in series [1], the Stokes shift amounted to 43 nm, the λabs was determined as 510 nm and the λem is 553 nm.

On to `COc1ccc2c(c1)S/C(=C\c1cc[n+](C)c(-c3ccccc3)c1)N2C` [Compound 5], for which, in series [2] (Neisseria gonorrhoeae (AQ10) LAMP, 62° C.), the “concentration with detrimental impact on Tp (delay in Tp)” value is not below 8 µM.

Regarding `CN(C)c1cc(/C=C2\Sc3ccccc3N2C)cc[n+]1C` [Compound 10], in series [1], the Stokes shift was determined as 38 nm, the λabs came out at 443 nm and the λem was found to be 481 nm.

Regarding `COc1ccc2c(c1)S/C(=C\c1cc[n+](C)c(N3CCOCC3)c1)N2C` [Compound 3], in series [1], the Stokes shift turned out to be 50 nm, the λabs amounted to 448 nm and the λem was determined as 498 nm. Besides, in series [2] (setting [4]), the “temperature of good performance” value was not below 61 °C and the “temperature with detrimental impact on performance (delay in Tp)” value was less than 60 °C. Moreover, in series [3] (40° C., lyophilized, 3-month time point, HPLC), the “% remaining” value amounted to 98.7±0.33%. For the same compound, in series [3] (room temperature (15-30° C.), extrapolated from 3 months accelerated conditions), the “corresponding stability at room temperature” value was 6 months.

`CN1/C(=C/c2cc[n+](C)c(N3CCOCC3)c2)Sc2ccccc21` [Compound 8]: in series [1], the Stokes shift was 38 nm, the λabs was determined as 442 nm and the λem is 480 nm.
